The source of these data is patent US11014902B2, “MYC G-quadruplex stabilizing small molecules and their use” (The United States of America, as represented by the …, priority 2015, dated 2021).

What all share (type): cell-based, human
In assay [1] the test system is MYC expression in L363 cells. In words: Gene expression analysis (Nanostring, qPCR), MYC. To be noted: L363 cells, 48 hours; 10 μM BRACO-19, 10 μM Compound 1, 7.5 μM Compound 23. The procedure: (§1) Gene expression analysis was performed on a panel of 770 cancer-associated genes in a multiplexed (nanostring) transcriptional assay. In addition to c-MYC itself, several c-Myc target genes were included in the panel, as were a number of other quadruplex-driven genes. […] Additionally, a third data set was collected comparing Compound 1 treatment to JQ-1 (a BET-bromodomain inhibitor) and quarfloxin (another quadruplex-binding small molecule).
(§2) The effects of Compound 1 on a number of known quadruplex-driven genes in the panel were examined further (FIG. 6). Expression levels of MYC, RB1, VEGFA, KRAS, and HIF1α, all of which are reported to be under the control of promoter G4s, and are expressed in L363 cells, were included in the panel of genes evaluated by Nanostring as discussed above. […] These changes in gene expression are in line with biophysical measurements of compound affinity. Corresponding data showing similar results is presented for Compounds 1 and 23 in FIGS. 14A and 14B. […] These observations further highlight the ability of Compound 1 and Compound 23 to specifically target the expression of c-Myc and related pathways.
(§3) The phenotype for c-MYC genetic knockdown in multiple myeloma was achieved through lentiviral transduction of shRNA for c-MYC, derived from the spinoculation of 293T cells and plasmids grown in STBL3 E. coli, and isolated with the Qiagen Plasmid Midi Kit. Aliquots of the plasmids were generously provided by Art Shaffer. RNA of treated myeloma cells at designated time points was isolated with the Qiagen RNeasy kit, and used with the nCounter Human Cancer Reference Kit (NanoString Technologies), surveying changes in expression for […] cancer-related human genes and 6 reference genes. Quantitative changes in expression were analyzed and grouped in the form of a heat map using the programming language, R. All other quantitative statistical packing was performed in GraphPad Prism.
A general note: Quantitative PCR measures a nucleic acid by following its amplification.

For assay [2], the system named is RB1, VEGFA, KRAS, HIF1α, BCL2 expression in L363 cells. In words: Gene expression analysis (Nanostring, qPCR), other G4-associated genes. To be noted: L363 cells, 48 hours; 10 μM BRACO-19, 10 μM Compound 1, 7.5 μM Compound 23. The procedure:
as §1, §2, §3

Assay [3] has as its system L363 cells. In words: L363 cell viability (MTS). The note with it: for viability at 10 µM: L-363, L363 cells; for pIC50: read-out: IC50. The procedure: Since two thirds of multiple myeloma cases involve deregulated c-MYC expression (Kuehl and Bergsagel, Blood 2012, 120, 2351; Shou, et al., Proc Natl Acad Sci USA 2000, 97, 228), we elected to evaluate the cell viability effects of Compound 1 in a multiple myeloma model. […] This suppression was maintained over 72 hours, which is notable given the characteristic rapid replenishment of the protein—a phenomenon that complicates targeting c-Myc at the protein level (FIG. 4C). This effect was maintained across a genetically diverse set of 4 multiple myeloma lines. We observed decreases in c-MYC translation in all lines tested, and this effect also correlated with decreases in viability (FIG. 4D).
Human multiple myeloma and Burkitt's Lymphoma cell lines L363, CA46, MM-1R, KMS-11, and MM-1S were cultured and authenticated as previously described (Simmons, et al., Molecular oncology 2014, 8, 261). All plasma derived cell lines were cultured in RPMI-1640 (2 mM L-glutamine, 10% fetal bovine serum (FBS), 100 U/ml penicillin, 100 μg/ml streptomycin: Gibco) and incubated at 37° C. with 5% CO2. Viability experiments were performed in quadruplicate on 96-well plates (Costar) at designated time and dose points. MTS reagent was then directly added, incubated at 37° C. for 90 min, and absorbance of MTS formazan was read at 500 nm on an Omega 640 spectrophotometer. Percentage cell viability was normalized to the absorbance of untreated (DMSO) wells. In the case of cells harvested for their protein or RNA, pellets were flash frozen and stored at −80° C. overnight prior to use. […]

The subject of assay [4] is c-MYC expression in L363 cells. The assay can be described thus: Inhibition of c-MYC expression in L363 cells (Peggy). To be noted: for Peggy (% c-Myc expression compared to untreated): L363 cells; for activity at 10 µM / Peggy (% c-Myc expression compared to untreated): at 10 μM. An excerpt:
FIG. 10 illustrates an exemplary procedure for generating analogs of Compound 1. The amine group of Compound 1 can be varied in reductive aminations to provide additional analogs. […] The table also provides an indication of an exemplary commercial source for the compounds, or (if applicable) an indication that the compound is new.

Setting [5] is: Homo sapiens, L-363, L363 cells, read-out: Peggy (% c-Myc expression compared to untreated).
[6] abbreviates: Homo sapiens, L-363, viability of L363 cells.

A word on the viability: it is a read-out of living cells in per cent, often relative to untreated cells. A word on the pIC50: it is the negative decadic logarithm of the IC50, by convention in mol/L.

pIC50: −log10 of the molar value. Like-named read-outs stand apart in the source and are kept apart here.

With `CN(C)c1ccc(Nc2c3ccc(NC(=O)CCN4CCCC4)cc3nc3cc(NC(=O)CCN4CCCC4)ccc23)cc1` [BRACO-19, reference compound], the “c-Myc expression (qPCR)” value in assay [1] is “reduced c-Myc expression”. In addition, the “expression of other G-quadruplex containing genes (qPCR)” value in assay [2] is reported as “minimally affecting expression of other G-quadruplex containing genes”.
Regarding `Cc1ccc(NC(=O)c2c(C)oc3ccc(O)c(CN4CCN(C)CC4)c23)cc1` [Compound 2], in assay [3] (Homo sapiens), the viability at 10 µM stood at 95%. Moreover, the activity at 10 µM in assay [4] (setting [5]) is 72%.
Take `Cc1ccc(NC(=O)c2c(C)oc3ccc(O)c(CN4CCCCCC4)c23)c(C)c1` [Compound 3]: in assay [3] (setting [6]), the pIC50 was 5.20. Further, the activity at 10 µM in assay [4] (setting [5]) stood at 52%.
The compound `Cc1ccccc1NC(=O)c1c(C)oc2ccc(O)c(CN3CCCCCC3)c12` [Compound 4] registered a viability at 10 µM in assay [3] (Homo sapiens) of 75%. Further, the activity at 10 µM in assay [4] (setting [5]) stood at 73%.
Regarding `Cc1ccccc1NC(=O)c1c(C)oc2ccc(O)c(CN3CCCCC3)c12` [Compound 5], the viability at 10 µM in assay [3] (Homo sapiens) amounted to 85%. Further, the activity at 10 µM in assay [4] (setting [5]) is 89%.
On to `Cc1oc2ccc(O)c(CN3CCCCCC3)c2c1C(=O)Nc1cccc(Cl)c1C` [Compound 6], for which the pIC50 in assay [3] (setting [6]) was 5.31. In assay [4] (setting [5]), the activity at 10 µM stood at 45%.
`COc1ccc(NC(=O)c2c(C)oc3ccc(O)c(CN4CCCCCC4)c23)cc1` [Compound 7]: the pIC50 in assay [3] (setting [6]) is 5.14. Moreover, the activity at 10 µM in assay [4] (setting [5]) was found to be 81%.
Consider `Cc1oc2ccc(O)c(CN3CCCCCC3)c2c1C(=O)NC1CCCCC1` [Compound 8], for which the activity at 10 µM in assay [4] (setting [5]) came to 76%.
In turn, `Cc1oc2ccc(O)c(CN3CCCC3)c2c1C(=O)Nc1ccccc1` [Compound 9] had a viability at 10 µM in assay [3] (Homo sapiens) of 100%. The activity at 10 µM in assay [4] (setting [5]) amounted to 96%.
With `CCOC(=O)c1c(-c2ccccc2)oc2ccc(O)c(CN3CCCCCC3)c12` [Compound 10], the negative logarithm of the IC50 (pIC50) in assay [3] (setting [6]) was 5.15. Further, the activity at 10 µM in assay [4] (setting [5]) worked out at 37%.
On to `CCOC(=O)c1c(C)n(C)c2ccc(O)c(CN3CCC(C)CC3)c12` [Compound 11], for which, in assay [3] (Homo sapiens), the viability at 10 µM stood at 89%. For the same compound, the activity at 10 µM in assay [4] (setting [5]) was found to be 69%.
Consider `Cc1oc2ccc(O)c(CN3CCC(C)CC3)c2c1C(=O)Nc1cccc(C(F)(F)F)c1` [Compound 12], for which the negative logarithm of the IC50 (pIC50) in assay [3] (setting [6]) was 5.47. Besides, in assay [4], the “Peggy (% c-Myc expression compared to untreated)” value is given as 43% (at 10 μM).
In the case of `Cc1oc2ccc(O)c(CN3CCCCCC3)c2c1C(=O)Nc1cccc(C(F)(F)F)c1` [Compound 13], in assay [3] (setting [6]), the negative-log IC50 (pIC50) is 5.48. Besides, in assay [4] (setting [5]), the activity at 10 µM came to 12%.
As to `Cc1ccc(NC(=O)c2c(C)oc3ccc(O)cc23)cc1` [Compound 14], the viability at 10 µM in assay [3] (Homo sapiens) was 84%. Further, the activity at 10 µM in assay [4] (setting [5]) amounted to 106%.
In turn, `Cc1ccc(NC(=O)c2c(C)oc3cccc(CN4CCCCCC4)c23)cc1` [Compound 15] returned a viability at 10 µM in assay [3] (Homo sapiens) of 53%. Besides, the activity at 10 µM in assay [4] (setting [5]) is 80%.
Regarding `Cc1ccc(NC(=O)c2c(C)oc3ccc(OS(=O)(=O)C(F)(F)F)c(CN4CCCCCC4)c23)cc1` [Compound 16], in assay [3] (Homo sapiens), the viability at 10 µM was determined as 70%. In addition, in assay [4] (setting [5]), the activity at 10 µM was determined as 112%.
In the case of `Cc1oc2ccc(O)c(CN3CCN(C)CC3)c2c1C(=O)Nc1cccc(C(F)(F)F)c1` [Compound 17], in assay [3] (setting [6]), the pIC50 is below 4.92. The activity at 10 µM in assay [4] (setting [5]) stood at 68%.
`Cc1oc2ccc(O)c(CN3CCCCC3)c2c1C(=O)Nc1cccc(C(F)(F)F)c1` [Compound 18]: the pIC50 in assay [3] (setting [6]) is 5.28. The activity at 10 µM in assay [4] (setting [5]) is 6.5%.
In the case of `Cc1oc2ccc(O)c(CN3CCCCC3C)c2c1C(=O)Nc1cccc(C(F)(F)F)c1` (stereo not drawn) [Compound 19], the pIC50 in assay [3] (setting [6]) is 5.42. Besides, the activity at 10 µM in assay [4] (setting [5]) was determined as 0.56%.
Consider `Cc1oc2ccc(O)c(CN3CCC(C)CC3)c2c1C(=O)Nc1cccc(C(F)(F)F)c1` [Compound 20], for which the pIC50 in assay [3] (viability of L363 cells) was 5.42. Further, the “Peggy (% c-Myc expression compared to untreated)” value in assay [4] is 1.4% (at 10 μM).
With `Cc1oc2ccc(O)c(CN3CCC3)c2c1C(=O)Nc1cccc(C(F)(F)F)c1` [Compound 21], the pIC50 in assay [3] (setting [6]) is below 4.92. For the same compound, in assay [4] (setting [5]), the activity at 10 µM was determined as 74%.
In the case of `Cc1oc2ccc(O)c(CN3CCC3)c2c1C(=O)Nc1ccc(C(F)(F)F)cc1` [Compound 22], the viability at 10 µM in assay [3] (Homo sapiens) was 100%. Besides, the activity at 10 µM in assay [4] (setting [5]) is 27%.
For `Cc1oc2ccc(O)c(CN3CCCC3)c2c1C(=O)Nc1cccc(C(F)(F)F)c1` [Compound 24], in assay [3] (setting [6]), the pIC50 was 5.11. Further, the activity at 6 µM in assay [4] (Homo sapiens, L-363, L363 cells, at 6 μM, read-out: Peggy (% c-Myc expression compared to untreated)) was determined as 63%.
`Cc1oc2ccc(O)c(CN3CCCC3)c2c1C(=O)Nc1ccc(C(F)(F)F)cc1` [Compound 25]: the negative-log IC50 (pIC50) in assay [3] (setting [6]) was 5.80. Further, the activity at 10 µM in assay [4] (setting [5]) is 32%.
Take `Cc1oc2ccc(O)c(CN3CCC(C)CC3)c2c1C(=O)Nc1ccc(C(F)(F)F)cc1` [Compound 26]: the negative-log IC50 (pIC50) in assay [3] (setting [6]) was 4.94.
For the compound `Cc1oc2ccc(O)c(CN3CCCC[C@@H]3C)c2c1C(=O)Nc1ccc(C(F)(F)F)cc1` [Compound 27], the pIC50 in assay [3] (setting [6]) is 4.59.
On the same count and under the same terms, the value for `Cc1oc2ccc(O)c(CN3CCC[C@H]3C)c2c1C(=O)Nc1ccc(C(F)(F)F)cc1` [Compound 28] was 5.16.
With `Cc1oc2ccc(O)c(CN3CCC[C@@H]3C)c2c1C(=O)Nc1ccc(C(F)(F)F)cc1` [Compound 29], the pIC50 in assay [3] (setting [6]) was 5.35.
For the compound `Cc1oc2ccc(O)c(CCN3CCCCCC3)c2c1C(=O)Nc1ccc(C(F)(F)F)cc1` [Compound 30], the negative logarithm of the IC50 (pIC50) in assay [3] (setting [6]) is 4.42.
In turn, `Cc1oc2ccc(O)c(CCCN3CCCCCC3)c2c1C(=O)Nc1ccc(C(F)(F)F)cc1` [Compound 31] displayed a viability at 10 µM in assay [3] (Homo sapiens) of 100%.
In the case of `Cc1oc2ccc(O)c(CN3CC4CCC3C4)c2c1C(=O)Nc1ccc(C(F)(F)F)cc1` (stereo not drawn) [Compound 32], the viability at 10 µM in assay [3] (Homo sapiens) was found to be 100%.
For `Cc1oc2ccc(O)c(CNC3CC4CCC3C4)c2c1C(=O)Nc1ccc(C(F)(F)F)cc1` (stereo not drawn) [Compound 33], in assay [3] (Homo sapiens), the viability at 10 µM is 100%.
For `Cc1oc2ccc(O)c(CNC3CC4CCC3CC4)c2c1C(=O)Nc1ccc(C(F)(F)F)cc1` (stereo not drawn) [Compound 34], the negative-log IC50 (pIC50) in assay [3] (setting [6]) was 5.01.
Compound `Cc1oc2ccc(O)c(CNC3CC4CCC3CC4)c2c1C(=O)Nc1ccc(C(F)(F)F)cc1` (stereo not drawn) [Compound 35] returned a viability at 10 µM in assay [3] (Homo sapiens) of 100%.
